Test results published in patent US11919939B2, “Beta-2-glycoprotein 1 derived peptide and use thereof for treating antiphospholipid syndrome” (Université de Genéve, priority 2017, dated 2024).
“Also recorded” adds a separate entry of the source.

B1: domain I-II: recombinant fusion protein of β2GP1 sushi domain I and II, SEQ ID NO:37 (protein, listed as Homo sapiens)
chain: MISPVLILFSSFLCHVAIAGRTCPKPDDLPFSTVVPLKTFYEPGEEITYSCKPGYVSRGGMRKFICPLTGLWPINTLKCTPRVCPFAGILENGAVRYTTFEYPNTISFSCNTGFYLNGADSAKCTEEGKWSPELPVCA
B2: domain V: recombinant fusion protein of β2GP1 domain V (protein)
chain: SCKVPVKKATVVYQGERVKIQEKFKNGMLHGDKVSFFCKNKEKKCSYTEDAQCIDGTIEVPKCFKEHSSLAFWKTDASDVKPC
modifications: left off: small tags and cut ends
B3: reduced β2GP1: reduced β2GP1 exposing the cryptic epitope (protein)
chain: GRTCPKPDDLPFSTVVPLKTFYEPGEEITYSCKPGYVSRGGMRKFICPLTGLWPINTLKCTPRVCPFAGILENGAVRYTTFEYPNTISFSCNTGFYLNGADSAKCTEEGKWSPELPVCAPIICPPPSIPTFATLRVYKPSAGNNSLYRDTAVFECLPQHAMFGNDTITCTTHGNWTKLPECREVKCPFPSRPDNGFVNYPAKPTLYYKDKATFGCHDGYSLDGPEEIECTKLGNWSAMPSCKASCKVPVKKATVVYQGERVKIQEKFKNGMLHGDKVSFFCKNKEKKCSYTEDAQCIDGTIEVPKCFKEHSSLAFWKTDASDVKPC
B4: β-2-Glycoprotein 1 (protein)
chain: B3 chain
notes: native β2GP1 purified from Human Plasma (Prospecbio)
B5: domain III-IV: recombinant fusion protein of β2GP1 domains III-IV (protein)
chain: PIICPPPSIPTFATLRVYKPSAGNNSLYRDTAVFECLPQHAMFGNDTITCTTHGNWTKLPECREVKCPFPSRPDNGFVNYPAKPTLYYKDKATFGCHDGYSLDGPEEIECTKLGNWSAMPSCKA
modifications: left off: small tags and cut ends

Key:
[1] = test system: aPLA (patient-derived anti-β2GP1 antibodies); assay: ELISA epitope mapping assay (aPLA binding to coated wells); design: species or system human; conditions: wells coated with 10 μg/ml, aPLA from APS patients
Method: IgG fractions were isolated from patients plasma with Protein-G CL-4B Sepharose (GE Healthcare) as previously described.^16 To assay for endotoxin and lipopeptide contamination of the IgG fractions, we depleted IgG from the aPLA and IgG-ctl (control) fractions by one step of affinity adsorption to Protein G-Sepharose and tested the remaining supernatant for its capacity for monocyte activation, as previously described^17. […] Each experiment was performed with at least 2 different preparations of IgG.
MaxiSorp™ 96 well plates (Nunc) were coated with 10 μg/ml recombinant domains or peptides of β2GP1 prior to incubation with aPLA or control IgG. Secondary anti-human antibodies conjugated to IR800CW (Rockland) were used. Protein- or peptide-bound antibodies were detected and quantified by the Odyssey system (Li-Cor).

[2] = test system: CD4+ T cells from APS patients; assay: T cell proliferation assay (CFSE dilution) on PBMC of APS patients; type: cell-based, human; design: dose or concentration left out as unconfirmed; conditions: antigens for 10 days, flow cytometry
Method: Peripheral blood mononuclear cells (PBMC) were isolated by density gradient centrifugation over Lymphoprep™ (Axis-Shield PoC) according to the manufacturer's instructions. T cell proliferation was evaluated by 5,6-carboxylfluorescein diacetate succinimidyl ester (CFSE) dilution assays (eBioscience). PBMC were stained with 0.1 μM CFSE (eBioscience), according to the manufacturer's instructions. Cells were cultured in the presence of antigens ([…]) for 10 days. T cell proliferation was assessed by flow cytometry evaluation of CFSE dilution. Proliferation was expressed as the cell division index (defined as the number of CFSE^low T cells cultured with antigen/number of CFSE^low T cells without antigen). In all cases, the culture medium consisted of X-VIVO 15 (Lonza, Walkersville, MD) supplemented with penicillin (100 U/ml) and streptomycin (0.1 mg/ml).
Single-cell suspensions stained with CFSE (eBioscience) were incubated with anti-CD32 (Biolegend) to prevent nonspecific antibody binding, then stained with antibodies against AF488-CD3, AF647-CD4, (BD Bioscience) major histocompatibility complex (MHC) class II tetramer (Benaroya Research Institute). Staining was assessed with ACCURI C6 flow cytometer (BD Biosciences).

[3] = test system: human monocytes activated with aPLA; assay: TNF production in human monocytes activated with aPLA; type: cell-based; conditions: domains or peptides at 10 μg/ml
Method: Monocytes were isolated from blood buffy coats of healthy volunteers as previously described.^14, 15 Monocyte purity routinely consisted of >90% CD14^+ cells, <1% CD3^+ cells, and <1% CD19^+ cells as assessed by flow cytometry. Cells were cultured in RPMI containing 10% Fetal Bovine Serum (FBS; Gibco BRL-Life Technologies). Each experiment was performed with at least three different preparations of monocytes.
The cells were treated with recombinant domains or peptides of β2GP1 at 10 μg/ml prior to incubation with aPLA or control IgG. Supernatants were collected for TNF quantification by ELISA (R&D System).

Molecule | aPLA binding to peptide- or domain-coated well [1] | Inhibition of TNF production induced by aPLA [3] | also measured
C14A: alanine scanning mutant of p1 (MISPVLILFSSFLAHVAIAG; listed as Homo sapiens) | significantly decreased the binding of aPLA | – | –
C66A: alanine scanning mutant of p6 (CKPGYVSRGGMRKFIAPLTG; listed as Homo sapiens) | involved in the binding of aPLA | – | –
F9A: alanine scanning mutant of p1 (MISPVLILASSFLCHVAIAG; listed as Homo sapiens) | significantly decreased the binding of aPLA | – | –
F12A: alanine scanning mutant of p1 (MISPVLILFSSALCHVAIAG; listed as Homo sapiens) | significantly decreased the binding of aPLA | – | –
F64A: alanine scanning mutant of p6 (CKPGYVSRGGMRKAICPLTG; listed as Homo sapiens) | involved in the binding of aPLA | – | –
G59A: alanine scanning mutant of p6 (CKPGYVSRAGMRKFICPLTG; listed as Homo sapiens) | involved in the binding of aPLA | – | –
G60A: alanine scanning mutant of p6 (CKPGYVSRGAMRKFICPLTG; listed as Homo sapiens) | involved in the binding of aPLA | – | –
I7A: alanine scanning mutant of p1 (MISPVLALFSSFLCHVAIAG; listed as Homo sapiens) | significantly decreased the binding of aPLA | – | –
L8A: alanine scanning mutant of p1 (MISPVLIAFSSFLCHVAIAG; listed as Homo sapiens) | significantly decreased the binding of aPLA | – | –
M61A: alanine scanning mutant of p6 (CKPGYVSRGGARKFICPLTG; listed as Homo sapiens) | involved in the binding of aPLA | – | –
MISPVLILFSSFLCHVAIAG [p1] | able to bind p1 (SEQ ID NO:32) as potently as p6; also recorded: interact with aPLA | diminished the production of TNF induced by aPLA | CD4+ T cell proliferative response (CD4+CFSElow) [2]: significantly increased; also recorded: induced the proliferation of CD4^+ T cells; CD4+ T cell proliferative response (CD4+CFSElow) ([2]; listed as peptide 1): carries antigenic determinant for CD4^+ T cell proliferation
R58A: alanine scanning mutant of p6 (CKPGYVSAGGMRKFICPLTG; listed as Homo sapiens) | involved in the binding of aPLA | – | –
R62A: alanine scanning mutant of p6 (CKPGYVSRGGMAKFICPLTG; listed as Homo sapiens) | involved in the binding of aPLA | – | –
S11A: alanine scanning mutant of p1 (MISPVLILFSAFLCHVAIAG; listed as Homo sapiens) | significantly decreased the binding of aPLA | – | –
p3: 20-mer overlapping peptide of β2GP1 domain I-II, SEQ ID NO:39 (RTCPKPDDLPFSTVVPLKTF; listed as Homo sapiens) | bound to p3 with a similar efficiency compared to p1 | – | –
p6: 20-mer peptide of β2GP1 domain I-II containing epitope R39-R43, SEQ ID NO:33 (CKPGYVSRGGMRKFICPLTG; listed as Homo sapiens) | interacted similarly with both peptides; also recorded: interact with aPLA | diminished the production of TNF induced by aPLA | –
p10: 20-mer overlapping peptide of β2GP1 domain I-II, SEQ ID NO:44 (ENGAVRYTTFEYPNTISFSC; listed as Homo sapiens) | – | had no effect | –
p11: 20-mer overlapping peptide of β2GP1 domain I-II, SEQ ID NO:45 (EYPNTISFSCNTGFYLNGAD; listed as Homo sapiens) | – | had no effect | –
B1 | binding of aPLA | significantly decreased the production of TNF induced by aPLA | CD4+ T cell proliferative response (CD4+CFSElow) [2]: induce proliferation of T cells; CD4+ T cell proliferative response (CD4+CFSElow) ([2]; listed as β2GP1-domain I-II): proliferative responses were detected
B2 | – | significantly decreased the production of TNF induced by aPLA | –
B3 | binding of aPLA | no effect on aPLA activity | CD4+ T cell proliferative response (CD4+CFSElow) [2]: induce proliferation of T cells; also recorded: proliferative responses were detected
B4 | binding of aPLA | no effect on aPLA activity | CD4+ T cell proliferative response (CD4+CFSElow) [2]: unable to significantly stimulate T cell proliferation
B5 | efficiently interacted with aPLA | significantly decreased the production of TNF induced by aPLA | aPLA binding to peptide- or domain-coated well ([1]; listed as domain III): binding of aPLA
